The test system of one data set is linken Herzvorhofes. In words: Functional refractory period of the isolated left atrium, paired electrical stimulation (antiarrhythmic effect). On the set-up: species or system Meerschweinchen. The settings on record: 0.3 h, concentration prolonging the functional refractory period to 125 % 18 min after application, guinea pig, read-out: Effektive Konzentration zur Erreichung von FRP 125 %. The source says: Der Nachweis der antiarrhythmischen Wirkung der Wirksubstanzen erfolgte experimentell durch Bestimmung der funktionellen Refraktärzeit des linken Herzvorhofes von weiblichen Albino Pirbright-white Meerschweinchen der Gewichtsklasse 300 bis 400 g mit Hilfe der gepaarten elektrischen Stimulation in Anlehnung an die Methode von Govier (W.C. Govier, J. Pharmacol. Exp. Ther. 148 (1) (1965), 100 bis 105). In der nachfolgenden Tabelle 3 ist als FRP 125 % diejenige Konzentration in µmol/l angegeben, bei der es 18 min nach Substanzapplikation zu einer Verlängerung der funktionellen Refraktärzeit auf 125 % kommt.

Data set [1] deals with spontan schlagenden, isolierten rechten Vorhöfen. The experiment in a line: Heart rate of spontaneously beating isolated right atria. On the set-up: species or system Meerschweinchen. Conditions: 20 min, concentration lowering the rate to 75 % of the initial value 20 min after application, guinea pig, read-out: Effektive Konzentration zur Erreichung von FRQ 75 %. Here is the method:
Der direkte Einfluß der Wirksubstanz auf die Herzfrequenz (FRQ) wurde an spontan schlagenden, isolierten rechten Vorhöfen von weiblichen Albino Pirbright-white Meerschweinchen der Gewichtsklasse von 300 bis 400 g geprüft. In Tabelle 3 ist als FRQ 75 % diejenige Konzentration in µmol/l angegeben, bei der es 20 min nach der Substanzgabe zu einer Abnahme der Frequenz auf 75 % des Ausgangwertes kommt. Tabelle 3

The next data set deals with Mäusen. In words: Determination of the minimal toxic dose in mice. The data set is classed as in vivo. The protocol: Männlichen Mäusen von 20-25 g Gewicht werden p.o. Maximaldosen von 300 mg/kg der Testsubstanz verabreicht. Die Tiere werden 3 Stunden lang sorgfältig auf Toxizitätssymptome beobachtet. über einen Zeitraum von 24 Stunden nach der Applikation werden zusätzlich alle Symptome und Todesfälle registriert. Begleitsymptome werden ebenfalls beobachtet und registriert. Wenn Tod oder starke toxische Symptome beobachtet werden, werden weiteren Mäusen zunehmend geringere Dosen verabreicht, bis keine toxischen Symptome mehr auftreten. Die niedrigste Dosis, welche Tod oder starke toxische Symptome hervorruft, wird als minimale toxische Dosis in der nachfolgenden Tabelle 2 angegeben. Tabelle 2

A further data set has as its system narkotisierten Ratten. The experiment in a line: Myocardial oxygen consumption (double product, method of Neill) in anaesthetised rats. The data set is classed as in vivo. The settings on record: used as dihydrochloride; for DP: double product (systolic pressure x heart rate); for FRQ: heart rate; for P₅: systolic blood pressure. From the text:
Die Wirkung der Substanzen auf Blutdruck und Herzfrequenz bei i.v.-Dauerinfusion in narkotisierten Ratten wird nach der Methode von Buschmann et al. (J. Cardiovascular Pharmacol. 2 777-781 (1980)) bestimmt.
Männliche Wistar-Ratten (330-370 g Körpergewicht) werden durch i.p.-Applikation von 1,25 g/kg Urethan narkotisiert und tracheotomiert. Nach einer Äquilibrierungsphase von 10 Minuten wird mit den Messungen begonnen. In einer Vorlaufphase von 5 Minuten werden die Ausgangswerte gemessen. Anschließend werden die Prüfsubstanzen gelöst in isotonischer Natriumschloridlösung (gegebenenfalls mit Zusatz eines Lösungsvermittlers) als Dauerinfusion i.v. appliziert, beginnend mit einer Dosis vom 0,01 µmol/kg/min. Die Dosis wird alle 10 Minuten ohne Erhöhung des Infusionsvolumens auf das 10-fache gesteigert. Eine Kontrollgruppe erhält nur wirkstofffreie Lösung appliziert.
In dem gleichen Versuchsmodell wurde auch der Einfluß der Wirksubstanzen auf den myokardialen Sauerstoffverbrauch an narkotisierten Ratten untersucht und anhand der Methode von Neill (Neill, W.Z., H.H. Levine, R.J. Wagman, R. Gorlin, Circulation Research 12 (1963), 163) berechnet. Dazu wird das Produkt aus systolischem Blutdruck und Herzfrequenz (= Doppelprodukt mm Hg x min⁻¹ x 0,01) berechnet. Wie aus der nachstehenden Tabelle 1A ersichtlich ist, reduzieren die Wirksubstanzen dieses Doppelprodukt und führen damit zu einer Sauerstoffeinsparung am Herzen. Tabelle 1A

[2] abbreviates: mouse, in vivo, po, 300 mg/kg, 1440 min.
Where [3] appears, read: anaesthetised rats, 2,6 µmol/kg i.v.
[4] abbreviates: anaesthetised rats, 6,6 µmol/kg i.v.

Where only a bound is given, the exact number is not on record here.

For `Cc1cccc(CC2C3CC(CN4CCCCC34)C3CCCCN32)c1` (centres unmarked) [Beispiel 518], in the data set on linken Herzvorhofes, the EC (FRP 125%) amounted to 2.58 µM. In addition, the EC (FRQ 75%) in data set [1] turned out to be 3.13 µM. Moreover, in the data set with Mäusen (setting [2]), the “Minimale toxische Dosis” value is above 300 mg/kg.

As to `Cc1ccc(CC2C3CC(CN4CCCCC34)C3CCCCN32)cc1` (centres unmarked) [Beispiel 519], the EC (FRP 125%) in the data set on linken Herzvorhofes was 3.24 µM. In data set [1], the EC (FRQ 75%) stood at 1.9 µM. Besides, the “Minimale toxische Dosis” value in the data set on Mäusen (setting [2]) worked out at 300 mg/kg.

For the compound `Cc1cccc(CC2C3CC(CN4CCCCC34)C3CCCCN32)c1F` (centres unmarked) [Beispiel 523], the EC (FRP 125%) in the data set with linken Herzvorhofes stood at 2.69 µM. For the same compound, in data set [1], the EC (FRQ 75%) is 0.95 µM. In the data set on Mäusen (setting [2]), the “Minimale toxische Dosis” value came out at 300 mg/kg.

Turning to `Fc1ccc(CC2C3CC(CN4CCCCC34)C3CCCCN32)cc1` (centres unmarked) [Beispiel 511], in the data set on linken Herzvorhofes, the EC (FRP 125%) came out at 2.47 µM. Also, in data set [1], the EC (FRQ 75%) is 5.12 µM. In the data set with Mäusen (setting [2]), the “Minimale toxische Dosis” value was above 300 mg/kg.

Take `Fc1ccccc1CC1C2CC(CN3CCCCC23)C2CCCCN21` (centres unmarked) [Beispiel 509]: the EC (FRP 125%) in the data set on linken Herzvorhofes worked out at 2.83 µM. For the same compound, in data set [1], the EC (FRQ 75%) came to 4.09 µM. In addition, the “Minimale toxische Dosis” value with Mäusen (setting [2]) is listed as above 300 mg/kg.

In the case of `Clc1ccccc1CC1C2CC(CN3CCCCC23)C2CCCCN21` (centres unmarked) [Beispiel 505], in the data set on linken Herzvorhofes, the EC (FRP 125%) is 2.17 µM. The “Änderung DP” value in the data set on narkotisierten Ratten (change of double product versus pre-dose values, 2,6 µmol/kg i.v.) is -26 Prozent. In the data set on narkotisierten Ratten (setting [3]), this compound yielded a DP of 376 mm Hg/ min x 100, an FRQ of 306 min⁻¹ and a P₅ of 121 mm Hg. Moreover, the EC (FRQ 75%) in data set [1] was determined as 0.99 µM. In addition, the “Minimale toxische Dosis” value in the data set with Mäusen (setting [2]) turned out to be 300 mg/kg.

Turning to `c1ccc(CC2C3CC(CN4CCCCC34)C3CCCCN32)cc1` (centres unmarked) [Beispiel 500, 17-Benzylspartein], the EC (FRP 125%) with linken Herzvorhofes worked out at 3.52 µM. In data set [1], the EC (FRQ 75%) stood at 1.46 µM. Besides, the “Minimale toxische Dosis” value in the data set on Mäusen (p.o., male mice, maximal dose 300 mg/kg, observed 24 h, lowest dose causing death or strong toxic symptoms) is above 300 mg/kg.

On to `COc1cccc(CC2C3CC(CN4CCCCC34)C3CCCCN32)c1OC` (centres unmarked) [Beispiel 6, 17-(2,3-Dimethoxybenzyl)-spartein], for which, in the data set on linken Herzvorhofes, the EC (FRP 125%) was 3.39 µM. Also, the EC (FRQ 75%) in data set [1] was determined as 4.85 µM. Further, the “Minimale toxische Dosis” value in the data set on Mäusen (setting [2]) is on record as above 300 mg/kg.

For the compound `COc1ccccc1CC1C2CC(CN3CCCCC23)C2CCCCN21` (centres unmarked) [Beispiel 501], the EC (FRP 125%) in the data set with linken Herzvorhofes turned out to be 3.71 µM. Also, in data set [1], the EC (FRQ 75%) is 4.69 µM. For the same compound, the “Minimale toxische Dosis” value in the data set on Mäusen (setting [2]) turned out to be 300 mg/kg.

For `COc1cccc(CC2C3CC(CN4CCCCC34)C3CCCCN32)c1` (centres unmarked) [Beispiel 502, 17-(3-Methoxybenzyl)-spartein], the EC (FRP 125%) in the data set with linken Herzvorhofes was 6.24 µM. For the same compound, the “Änderung DP” value in the data set with narkotisierten Ratten (change of double product versus pre-dose values, 6,6 µmol/kg i.v.) is given as -29 Prozent. In the data set with narkotisierten Ratten (setting [4]), this compound yielded a DP of 312 mm Hg/ min x 100, an FRQ of 254 min⁻¹ and a P₅ of 124 mm Hg. Also, the EC (FRQ 75%) in data set [1] was 2.06 µM. The “Minimale toxische Dosis” value in the data set on Mäusen (setting [2]) was determined as 300 mg/kg.

For the origin of these results see EP0273272B1, “Pharmaceutical compositions containing 17-benzyl sparteine derivatives with a positive inotropic effect” (Kali-Chemie Pharma GmbH, priority 1986, dated 1988).
